Laboratory results: article PMC5839718 (The Journal of General Physiology, 2018)
Values joined by “and” are separate entries in the source; they are usually repeats but may differ in a detail not shown here. Equal entries are not always repeated. “Also recorded” adds a separate entry of the source. Where two headings read alike, the source gives them in different places.

Legend:
Assay type in all cases: cell-based
[1] = target: α4β2 nAChR from β-9a-α and α4 (1:1) (Homo sapiens, UniProt P17787+P43681); assay: two-electrode voltage-clamp, oocytes, β-9a-α and α4
[2] = target: α4β2 nAChR from β-3a-α-β-α-α (Homo sapiens, UniProt P17787+P43681); assay: two-electrode voltage-clamp, oocytes, pentameric β-3a-α-β-α-α
[3] = target: α4β2 nAChR from β-3a-α^VFL-α-β-α (Homo sapiens, UniProt P17787+P43681, H142V/Q150F/T152L); assay: two-electrode voltage-clamp, oocytes, pentameric β-3a-α^VFL-α-β-α
[4] = target: α4β2 nAChR from β-6-α-9-β-6-α alone (Homo sapiens, UniProt P17787+P43681); assay: two-electrode voltage-clamp, oocytes, tetrameric β-6-α-9-β-6-α alone
[5] = target: α4β2 nAChR from β-0a-α and α4^VFL (1:1) (Homo sapiens, UniProt P17787+P43681, H142V/Q150F/T152L); assay: two-electrode voltage-clamp, oocytes, β-0a-α and α4^VFL; conditions: β-0a-α + α4^VFL
[6] = target: α4β2 nAChR from β-21a-α-β-α-α (Homo sapiens, UniProt P17787+P43681); assay: two-electrode voltage-clamp, oocytes, pentameric β-21a-α-β-α-α
[7] = target: α4β2 nAChR from concatenated β-6-α alone (Homo sapiens, UniProt P17787+P43681); assay: two-electrode voltage-clamp, oocytes, β-6-α alone
[8] = target: (α4^VFL)3(β2)2 nAChR from α4^VFL and β2 (10:1) (Homo sapiens, UniProt P17787+P43681, H142V/Q150F/T152L); assay: two-electrode voltage-clamp, X. laevis oocytes, α4^VFL and β2 cRNA 10:1
[9] = target: α4β2 nAChR from β-6a-α alone (Homo sapiens, UniProt P17787+P43681); assay: two-electrode voltage-clamp, oocytes, β-6a-α alone
[10] = target: (α4)3(β2)2 nAChR from α4 and β2 (10:1) (Homo sapiens, UniProt P17787+P43681); assay: two-electrode voltage-clamp, X. laevis oocytes, α4 and β2 cRNA 10:1
[11] = target: α4β2 nAChR from β-6-α and α4^VFL (1:1) (Homo sapiens, UniProt P17787+P43681, H142V/Q150F/T152L); assay: two-electrode voltage-clamp, oocytes, β-6-α and α4^VFL 1:1; conditions: β-6-α + α4^VFL 1:1
[12] = target: α4β2 nAChR from β-9a-α alone (Homo sapiens, UniProt P17787+P43681); assay: two-electrode voltage-clamp, oocytes, β-9a-α alone
[13] = target: α4β2 nAChR from β-3a-α and α4^VFL (1:1) (Homo sapiens, UniProt P17787+P43681, H142V/Q150F/T152L); assay: two-electrode voltage-clamp, oocytes, β-3a-α and α4^VFL
[14] = target: α4β2 nAChR from β-6-α-9-β-6-α and α4^VFL (1:5) (Homo sapiens, UniProt P17787+P43681, H142V/Q150F/T152L); assay: two-electrode voltage-clamp, oocytes, β-6-α-9-β-6-α and α4^VFL 1:5
[15] = target: α4β2 nAChR from β-3a-α^VFL-β-α-α (Homo sapiens, UniProt P17787+P43681, H142V/Q150F/T152L); assay: two-electrode voltage-clamp, oocytes, pentameric β-3a-α^VFL-β-α-α
[16] = target: α4β2 nAChR from β-21a-α-β-α-α^VFL (Homo sapiens, UniProt P17787+P43681, H142V/Q150F/T152L); assay: two-electrode voltage-clamp, oocytes, pentameric β-21a-α-β-α-α^VFL
[17] = target: α4β2 nAChR from β-6-α and α4 (1:1) (Homo sapiens, UniProt P17787+P43681); assay: two-electrode voltage-clamp, oocytes, β-6-α and α4; conditions: β-6-α + α4
[18] = target: α4β2 nAChR from β-6a-α and α4^VFL (1:1) (Homo sapiens, UniProt P17787+P43681, H142V/Q150F/T152L); assay: two-electrode voltage-clamp, oocytes, β-6a-α and α4^VFL
[19] = target: α4β2 nAChR from β-6-α-9-β-6-α and α4^VFL (1:1) (Homo sapiens, UniProt P17787+P43681, H142V/Q150F/T152L); assay: two-electrode voltage-clamp, oocytes, β-6-α-9-β-6-α and α4^VFL 1:1
[20] = target: α4β2 nAChR from β-21a-α^VFL-α-β-α (Homo sapiens, UniProt P17787+P43681, H142V/Q150F/T152L); assay: two-electrode voltage-clamp, oocytes, pentameric β-21a-α^VFL-α-β-α
[21] = target: α4β2 nAChR from β-3a-α-β-α-α^VFL (Homo sapiens, UniProt P17787+P43681, H142V/Q150F/T152L); assay: two-electrode voltage-clamp, oocytes, pentameric β-3a-α-β-α-α^VFL
[22] = […] NS9283 + 10 µM ACh, % change from AChcontrol current

Chain of (α4^VFL)3(β2)2 nAChR from α4^VFL and β2 (10:1) (P43681 27-627 H142V/Q150F/T152L): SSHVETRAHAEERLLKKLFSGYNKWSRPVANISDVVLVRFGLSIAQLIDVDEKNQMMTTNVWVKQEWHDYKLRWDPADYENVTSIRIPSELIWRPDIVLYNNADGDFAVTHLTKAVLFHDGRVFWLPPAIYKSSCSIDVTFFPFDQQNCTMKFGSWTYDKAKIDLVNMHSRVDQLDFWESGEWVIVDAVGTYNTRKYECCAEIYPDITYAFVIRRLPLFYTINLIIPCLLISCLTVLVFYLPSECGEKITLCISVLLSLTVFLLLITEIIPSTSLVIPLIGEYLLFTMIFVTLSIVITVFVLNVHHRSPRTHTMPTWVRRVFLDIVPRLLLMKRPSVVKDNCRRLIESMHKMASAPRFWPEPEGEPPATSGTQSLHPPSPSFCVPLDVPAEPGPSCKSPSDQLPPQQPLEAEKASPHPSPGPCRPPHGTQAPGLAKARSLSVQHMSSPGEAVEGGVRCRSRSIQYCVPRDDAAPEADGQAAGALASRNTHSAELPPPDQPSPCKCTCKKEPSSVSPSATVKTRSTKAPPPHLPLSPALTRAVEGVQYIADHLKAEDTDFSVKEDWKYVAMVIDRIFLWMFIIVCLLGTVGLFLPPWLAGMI
Chain of (α4^VFL)3(β2)2 nAChR from α4^VFL and β2 (10:1) (P17787 26-502): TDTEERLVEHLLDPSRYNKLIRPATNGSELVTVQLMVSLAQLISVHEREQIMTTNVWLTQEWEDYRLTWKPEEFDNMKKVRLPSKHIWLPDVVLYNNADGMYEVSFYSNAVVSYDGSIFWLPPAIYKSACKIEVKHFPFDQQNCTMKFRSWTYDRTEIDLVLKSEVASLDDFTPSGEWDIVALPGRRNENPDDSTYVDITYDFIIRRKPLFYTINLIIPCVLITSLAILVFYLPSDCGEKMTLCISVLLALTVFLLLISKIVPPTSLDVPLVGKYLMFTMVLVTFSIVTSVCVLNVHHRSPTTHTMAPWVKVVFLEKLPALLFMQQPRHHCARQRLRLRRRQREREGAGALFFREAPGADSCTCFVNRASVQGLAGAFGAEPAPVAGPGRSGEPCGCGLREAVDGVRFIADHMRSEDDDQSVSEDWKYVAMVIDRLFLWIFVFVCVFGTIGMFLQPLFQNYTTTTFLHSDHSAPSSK
Chain of (α4)3(β2)2 nAChR from α4 and β2 (10:1) (P43681 27-627): as the sequence (P43681 27-627 H142V/Q150F/T152L) above, with V116H, F124Q, L126T counted along it
Chain of (α4)3(β2)2 nAChR from α4 and β2 (10:1) (P17787 26-502): as the sequence (P17787 26-502) above
Chain of α4β2 nAChR from β-6-α-9-β-6-α alone (P43681 27-627): as the sequence (P43681 27-627 H142V/Q150F/T152L) above, with V116H, F124Q, L126T counted along it
Chain of α4β2 nAChR from β-6-α-9-β-6-α alone (P17787 26-502): as the sequence (P17787 26-502) above
Chain of α4β2 nAChR from β-3a-α and α4^VFL (1:1) (P17787 26-502): as above
Chain of α4β2 nAChR from β-3a-α and α4^VFL (1:1) (P43681 27-627, stated change not applied): as the sequence (P43681 27-627 H142V/Q150F/T152L) above, with V116H, F124Q, L126T counted along it
Chain of α4β2 nAChR from β-3a-α and α4^VFL (1:1) (P43681 27-627 H142V/Q150F/T152L): as the sequence (P43681 27-627 H142V/Q150F/T152L) above

Compound: CC(=O)OCC[N+](C)(C)C [ACh, acetylcholine]
- ACh Frac (first component fraction) ([1]; β-9a-α + α4, biphasic fit): 0.13 ± 0.05
- Emax ([2]; read-out: ACh Emax): 102 ± 1%
- ACh Frac (first component fraction) ([2]; β-3a-α-β-α-α, biphasic fit): 0.11 ± 0.02
- Emax ([3]; read-out: ACh Emax): 105 ± 4%
- ACh Frac (first component fraction) ([3]; β-3a-α^VFL-α-β-α, biphasic fit): 0.28 ± 0.10
- Emax ([4]; read-out: ACh Emax): 109 ± 5%
- ACh Frac (first component fraction) ([4]; β-6-α-9-β-6-α alone, biphasic fit): 0.45 and 0.45 ± 0.07
- ACh Frac (first component fraction) ([5]; biphasic fit): 0.28 ± 0.34
- Emax ([6]; read-out: ACh Emax): 101 ± 1%
- mean AChmax-evoked currents ([6]; β-21a-α-β-α-α): ~2 μA
- ACh Frac (first component fraction) ([6]; β-21a-α-β-α-α, biphasic fit): 0.060 ± 0.011
- Emax ([7]; read-out: ACh Emax): 102 ± 2%
- ACh Frac (first component fraction) ([7]; β-6-α alone, biphasic fit): 0.11 and 0.11 ± 0.02
- Emax ([8]; read-out: ACh Emax): 104 ± 2%
- ACh Frac (first component fraction) ([8]; α4^VFL+β2 10:1, biphasic fit): 0.71 ± 0.12
- Emax ([9]; read-out: ACh Emax): 103 ± 2%
- ACh Frac (first component fraction) ([9]; β-6a-α alone, biphasic fit): 0.70 ± 0.12
- Emax ([10]; read-out: ACh Emax): 102 ± 1%
- ACh Frac (first component fraction) ([10]; α4+β2 10:1, biphasic fit): 0.11 ± 0.03
- ACh Frac (first component fraction) ([11]; biphasic fit): 0.40 ± 0.08
- Emax ([12]; read-out: ACh Emax): 105 ± 3%
- ACh Frac (first component fraction) ([12]; β-9a-α alone, biphasic fit): 0.28 and 0.28 ± 0.05
- ACh Frac (first component fraction) ([13]; β-3a-α + α4^VFL, biphasic fit): 0.41 ± 0.06
- ACh Frac (first component fraction) ([14]; β-6-α-9-β-6-α + α4^VFL 1:5, biphasic fit): 0.32 ± 0.13
- Emax ([15]; read-out: ACh Emax): 105 ± 1%
- ACh Frac (first component fraction) ([15]; β-3a-α^VFL-β-α-α, biphasic fit): 0.39 ± 0.05
- Emax ([16]; read-out: ACh Emax): 105 ± 1%
- ACh Frac (first component fraction) ([16]; β-21a-α-β-α-α^VFL, biphasic fit): 0.59 ± 0.07
- ACh Frac (first component fraction) ([17]; biphasic fit): 0.073 ± 0.038
- ACh Frac (first component fraction) ([18]; β-6a-α + α4^VFL, biphasic fit): 0.31 ± 0.14
- ACh Frac (first component fraction) ([19]; β-6-α-9-β-6-α + α4^VFL 1:1, biphasic fit): 0.41 ± 0.09
- Emax ([20]; read-out: ACh Emax): 104 ± 1%
- ACh Frac (first component fraction) ([20]; β-21a-α^VFL-α-β-α, biphasic fit): 0.44 ± 0.1
- Emax ([21]; read-out: ACh Emax): 104 ± 1%
- ACh Frac (first component fraction) ([21]; β-3a-α-β-α-α^VFL, biphasic fit): 0.53 ± 0.08

Compound: N#Cc1cccc(-c2nc(-c3cccnc3)no2)c1 [NS9283, 3-(3-(pyridine-3-yl)-1,2,4-oxadiazol-5-yl)benzonitrile]
- EC50 ([1]; NS9283 pEC50, β-9a-α + α4, coapplied with 10 µM ACh): 12.6 µM
- EC50 [2]: 7.94 µM
- Emax ([2]; read-out: NS9283 Emax): 800 ± 90%
- NS9283 E31.6 µM ([2]; β-3a-α-β-α-α, […] NS9283 + 10 µM ACh, % change from AChcontrol current): 640 ± 90%
- EC50 ([3]; NS9283 pEC50, β-3a-α^VFL-α-β-α, coapplied with 10 µM ACh): 7.94 µM
- Emax ([3]; read-out: NS9283 Emax): 340 ± 20%
- NS9283 E31.6 µM ([3]; β-3a-α^VFL-α-β-α, […] NS9283 + 10 µM ACh, % change from AChcontrol current): 270 ± 10%
- EC50 [4]: 10 µM
- Emax ([4]; read-out: NS9283 Emax): 220 ± 30%
- NS9283 E31.6 µM ([4]; β-6-α-9-β-6-α alone, […] NS9283 + 10 µM ACh, % change from AChcontrol current): 170 ± 20%
- NS9283 Emax ([5]; coapplied with 10 µM ACh): No hint of NS9283 enhancement; also recorded: No pos. pot
- EC50 [6]: 7.94 µM
- EC50 [7]: 12.6 µM
- Emax ([7]; read-out: NS9283 Emax): 900 ± 140%
- NS9283 E31.6 µM ([7]; β-6-α alone, […] NS9283 + 10 µM ACh, % change from AChcontrol current): 640 ± 90%
- NS9283 Emax ([8]; α4^VFL+β2 10:1, coapplied with 10 µM ACh): no positive efficacy; also recorded: No pos. pot
- EC50 [9]: 3.98 µM
- Emax ([9]; read-out: NS9283 Emax): 51 ± 7%
- EC50 [10]: 5.01 µM
- Emax ([10]; read-out: NS9283 Emax): 860 ± 60%
- NS9283 E31.6 µM [11, 22]: 210 ± 20%
- EC50 [12]: 10 µM
- Emax ([12]; read-out: NS9283 Emax): 130 ± 30%
- NS9283 E31.6 µM ([12]; β-9a-α alone, […] NS9283 + 10 µM ACh, % change from AChcontrol current): 100 ± 20%
- EC50 ([13]; NS9283 pEC50, β-3a-α + α4^VFL, coapplied with 10 µM ACh): 6.31 µM
- NS9283 E31.6 µM ([13]; β-3a-α + α4^VFL, […] NS9283 + 10 µM ACh, % change from AChcontrol current): 22 ± 3%
- EC50 ([14]; NS9283 pEC50, β-6-α-9-β-6-α + α4^VFL 1:5, coapplied with 10 µM ACh): 7.94 µM
- EC50 ([15]; NS9283 pEC50, β-3a-α^VFL-β-α-α, coapplied with 10 µM ACh): 6.31 µM
- Emax ([15]; read-out: NS9283 Emax): 240 ± 20%
- EC50 [16]: 5.01 µM
- Emax ([16]; read-out: NS9283 Emax): 48 ± 5%
- NS9283 E31.6 µM ([16]; β-21a-α-β-α-α^VFL, […] NS9283 + 10 µM ACh, % change from AChcontrol current): 41 ± 4%
- NS9283 E31.6 µM [17, 22]: 860 ± 100%
- EC50 ([18]; NS9283 pEC50, β-6a-α + α4^VFL, coapplied with 10 µM ACh): 10 µM
- NS9283 E31.6 µM ([18]; β-6a-α + α4^VFL, […] NS9283 + 10 µM ACh, % change from AChcontrol current): 140 ± 10%
- EC50 ([19]; NS9283 pEC50, β-6-α-9-β-6-α + α4^VFL 1:1, coapplied with 10 µM ACh): 10 µM
- EC50 [20]: 6.31 µM
- Emax ([20]; read-out: NS9283 Emax): 102 ± 10%
- NS9283 E31.6 µM ([20]; β-21a-α^VFL-α-β-α, […] NS9283 + 10 µM ACh, % change from AChcontrol current): 85 ± 10%
- Emax ([21]; read-out: NS9283 Emax): 13 ± 1%
- NS9283 E31.6 µM ([21]; β-3a-α-β-α-α^VFL, […] NS9283 + 10 µM ACh, % change from AChcontrol current): 11 ± 2%
